{"source": "patent US12187762B2", "about": "“Dithiolsaccharide mucolytic agents and uses thereof” (The Regents of the University of California, priority 2018, dated 2025)", "key": {"[1]": {"tested_on": "primary human airway epithelial cells (AECs)", "test": "G6PD release cytotoxicity assay in airway epithelial cells at air-liquid interface", "type": "cell-based", "settings": "Compound 1 disodium salt, apical exposure 1 hr at 37° C. at 5, 25 and 50 mM, 6 hr recovery; compared with PBS control", "experimental": "Briefly, primary tracheobronchial epithelial cells from ten donors were expanded in culture and differentiated at air-liquid interface for 21 days. Detailed cell culture protocols for airway epithelial cells can be found in Lachowicz-Scroggins et al, Cell Discov, 4, Article 7, 2018 and Widdicombe et al, Biotechniques, 39, 249-255, 2005. Compound 1 (disodium salt) was dissolved in PBS, added to apical surface of the cells at 5, 25 and 50 mM and left for 1 hr at 37° C. PBS was negative control. The apical and basolateral surfaces were washed with PBS, fresh media was added to basolateral side for 6 hr recovery period and collected for G6PD measurements. One control filter was harvested for full lysis with NP-40 lysis buffer to measure total G6PD content in cell lysates.\nG6PD (glucose 6-phosphase dehydrogenase) release is a common method of assessing the extent of cellular damage or death. G6PD was measured using Vybrant® Cytotoxicity Assay Kit (ThermoFisher Scientific) and expressed as percent released relative to the total G6PD content."}, "C57BL/6 mice": {"tested_on": "C57BL/6 mice", "test": "In vivo safety assessment, mouse intranasal (pulmonary) delivery model", "experimental": "Body weights were recorded on days 1, 8 and 15. On day 15, BAL was performed and used for total and differential cell counts. Mice were euthanized on day 15, and whole lung was fixed in 10% formalin, embedded in paraffin, sectioned and H&E stained for subsequent injury scoring by board-certified lung pathologist (Table 1B provides scoring criteria). Scoring was done blindly. Sera were obtained from blood collected by cardiac puncture and tested for renal and metabolic function outcomes.\nTable 1. […] Safety outcomes in mouse pulmonary delivery model (A). […] Outcome measures of safety included body weight, renal function tests, measures of lung injury in bronchoalveolar lavage (BAL), and histologic appearance of tissue sections from formalin-fixed and paraffin-embedded lungs."}, "[2]": {"test": "Cone-and-plate rheology of elastic modulus (G′) in thiolated hydrogel substrate", "settings": "for concentration needed to cause a 40% decrease in the G′ of the hydrogel (ΔG′=−40%): 30 min incubation, dose response 0.5-10 mM", "experimental": "2.2. Preparation of thiolated hyaluronic acid hydrogel as a model substrate: Thiolated hyaluronic acid hydrogel (Glycosil®, ESI-BIO) was solubilized in 10% DMSO/75 mM NaCl/sodium phosphate pH 7.4 buffer, prepared using degassed water. Aliquots of 250 microliter of gel solution were distributed to 1.5 ml centrifuge tubes, sealed, and incubated overnight (˜18 hours) at room temperature to allow for slow oxidation and cross-linking of the hydrogel. Gels formed by this protocol typically yielded elastic moduli of 20-30 Pa, measured by cone-and-plate rheology.\n2.3. Rheological measurements: A rheometer was employed to determine the effect of the compounds disclosed herein on the elastic modulus (G′) of ex vivo human sputum or model hydrogel substrate. The terms “elastic modulus”, G′, and the like refer to the elastic modulus as known in the art. Rheological measurements were made with AR2000 or DHR cone-and-plate rheometer (TA instruments), as known in the art. For sputum samples, ˜0.8 mL was used per assay, with 40 mm 2° geometry. For thiolated hydrogel samples, 0.25 mL was used per assay, with 40 mm ½° geometry. For timesweep recordings, a solvent trap with water as solvent was employed to minimize drying. Test compounds were dissolved in water and added at 10% v/v, to result in the final concentration of interest in the sample. The effect of test compound was measured by taking measurements every 2 min, for a period of 30 min. Normalized ratio % G′ was calculated by dividing the post treatment measurement of G′ at particular timepoint by pretreatment measurement of G′. Percent change in elastic modulus (% ΔG′) was calculated by comparing the measurement at 30 min to the initial pretreatment baseline.\nRheological measurements with Compound 1, Compound 5, Compound 9 and N-acetylcysteine at concentrations between 0.5-10 mM were conducted in order to understand the dose dependence of mucolytic efficacy on concentration of the dithiol test agents (FIG. 3). Effective concentration that causes 40% change in G′ for each test agent was determined. All dithiols tested cause 40% change in G′ at concentrations <1 mM, while NAC requires ˜8-10× higher dose to achieve the same mucolytic effect.\nMucolytic efficacy data was collected in cross-linked thiolated hydrogel model system for multiple enabled dithiolsaccharide compounds and N-acetylcysteine at 5 mM."}, "[3]": {"settings": "mean ± SEM, BAL on day 15, intranasal 30 μL, 25 mM, 10 doses"}, "[4]": {"settings": "mean ± SEM, serum, intranasal 30 μL, 25 mM, 10 doses"}}, "note": "“Also recorded” adds a separate entry of the source."}
{"smiles": "OC1C(O)[C@H](S)OC(CS)[C@@H]1O", "note": "(stereo partly drawn) [Compound 1, 1,6-dithio-6-deoxy-β-D-galactopyranose]", "values": [{"measurement": "% release of G6PD (cell toxicity)", "setting": "[1]", "value": "minimal and similar to that of the Phosphate Buffered Saline (PBS) control; also recorded: low and similar to the PBS control"}, {"measurement": "systemic or lung toxicity compared to control saline", "setting": "C57BL/6 mice; intranasal 30 μL of 25 mM daily, 10 doses over 2 weeks, N=10 mice", "value": "did not cause any discernible systemic or lung toxicity"}, {"measurement": "BAL Eosinophil %", "setting": "C57BL/6 mice; [3]", "value": "0 ± 0", "unit": "%"}, {"measurement": "BAL Lymphocyte %", "setting": "C57BL/6 mice; [3]", "value": "0 ± 0.1", "unit": "%"}, {"measurement": "BAL Macrophage %", "setting": "C57BL/6 mice; [3]", "value": "100 ± 0.1", "unit": "%"}, {"measurement": "BAL Neutrophil %", "setting": "C57BL/6 mice; [3]", "value": "0 ± 0", "unit": "%"}, {"measurement": "BAL total cell count", "setting": "C57BL/6 mice; [3]", "value": "(37.3 ± 7) × 10^4"}, {"measurement": "Lung Injury Score", "setting": "C57BL/6 mice; mean ± SEM, blinded histology score 0-4 per Table 1B, day 15, intranasal 30 μL, 25 mM, 10 doses", "value": "0.4 ± 0.16"}, {"measurement": "Body weight", "setting": "C57BL/6 mice; mean ± SEM, intranasal 30 μL, 25 mM, 10 doses over 2 weeks", "value": "18.6 ± 0.32", "unit": "g"}, {"measurement": "Blood urea nitrogen (renal function test)", "setting": "C57BL/6 mice; [4]", "value": "25 ± 1.3", "unit": "mg/dL"}, {"measurement": "Creatinine (renal function test)", "setting": "C57BL/6 mice; [4]", "value": "0.15 ± 0.01", "unit": "mg/dL"}, {"measurement": "concentration needed to cause a 40% decrease in the G′ of the hydrogel (ΔG′=−40%)", "setting": "[2]", "value": 0.7, "unit": "mM"}]}
{"smiles": "OC1C(O)[C@H](O)C(CS)O[C@@H]1O[C@H]1OC(CS)[C@@H](O)C(O)C1O", "note": "(stereo partly drawn) [Compound 5, 6,6′-dithio-6,6′-dideoxy-α,α-trehalose]", "values": [{"measurement": "concentration needed to cause a 40% decrease in the G′ of the hydrogel (ΔG′=−40%)", "setting": "[2]", "value": 1.0, "unit": "mM"}]}
{"smiles": "CO[C@]1(CS)O[C@H](CS)C(O)C1O", "note": "(stereo partly drawn) [Compound 9, Methyl-1,6-dithio-1,6-dideoxy-β-D-fructofuranoside]", "values": [{"measurement": "concentration needed to cause a 40% decrease in the G′ of the hydrogel (ΔG′=−40%)", "setting": "[2]", "value": 0.7, "unit": "mM"}]}
{"smiles": "CC(=O)N[C@@H](CS)C(=O)O", "note": "[NAC, N-acetylcysteine, reference compound]", "values": [{"measurement": "concentration needed to cause a 40% decrease in the G′ of the hydrogel (ΔG′=−40%)", "setting": "[2]", "value": 8, "unit": "mM"}, {"measurement": "dose of NAC relative to dithiols needed to achieve the same mucolytic effect (40% change in G′)", "setting": "[2]; fold higher dose than dithiols", "value": "8-10 ×"}]}
